“And” between values parts separate entries of the source, which are not always exact repeats. Equal values may be shown once.
Columns and labels:
[1] = 298.15 K; 101.33 kPa; Liquid
[2] = excess molar enthalpy (molar enthalpy of mixing); xn = mol fraction of the nth substance listed; details: 298.15 K, 101 kPa, Liquid, Flow calorimetry

CCCOCCC [dipropyl ether]
Details	mass density [kg/m3]
[1]	741.997

CCCOCCC [dipropyl ether] + C1CCOC1
[2]
Details	excess molar enthalpy
x1 = 0.05	0.0125 kcal/mol
x1 = 0.1	0.0232 kcal/mol
x1 = 0.1501	0.0325 kcal/mol
x1 = 0.2	0.0402 kcal/mol
x1 = 0.2498	0.0468 kcal/mol
x1 = 0.2998	0.0518 kcal/mol
x1 = 0.3503	0.0556 kcal/mol
x1 = 0.3998	0.058 kcal/mol
x1 = 0.45	0.0591 kcal/mol
x1 = 0.4998	0.0594 kcal/mol and 0.0593 kcal/mol
x1 = 0.5499	0.0585 kcal/mol
x1 = 0.5999	0.0565 kcal/mol
x1 = 0.6502	0.0535 kcal/mol
x1 = 0.7003	0.0493 kcal/mol
x1 = 0.7499	0.0441 kcal/mol
x1 = 0.7999	0.0381 kcal/mol
x1 = 0.85	0.0305 kcal/mol
x1 = 0.9	0.0216 kcal/mol
x1 = 0.95	0.0115 kcal/mol

CCCOCCC [dipropyl ether] + C=CCCCC
[2]
Details	excess molar enthalpy [kcal/mol]
x1 = 0.0529	0.00158
x1 = 0.1001	0.00289
x1 = 0.15	0.00394
x1 = 0.2001	0.0048
x1 = 0.25	0.00545
x1 = 0.3002	0.00595
x1 = 0.3499	0.00632
x1 = 0.4001	0.00654
x1 = 0.4501	0.00671
x1 = 0.5001	0.00669
x1 = 0.55	0.00661
x1 = 0.5998	0.00641
x1 = 0.6499	0.00609
x1 = 0.6996	0.0057
x1 = 0.75	0.00515
x1 = 0.8003	0.0045
x1 = 0.85	0.00368
x1 = 0.9	0.00271
x1 = 0.95	0.00146

CCCOCCC [dipropyl ether] + CCCCOCCCC
[2]
Details	excess molar enthalpy [kcal/mol]
x1 = 0.05	0.000533
x1 = 0.1	0.00102
x1 = 0.15	0.0014
x1 = 0.2001	0.00175
x1 = 0.25	0.00205
x1 = 0.3	0.00229
x1 = 0.35	0.00246
x1 = 0.3998	0.00261
x1 = 0.4497	0.00275
x1 = 0.4998	0.00283
x1 = 0.5004	0.00283
x1 = 0.55	0.00284
x1 = 0.6001	0.00281
x1 = 0.65	0.00271
x1 = 0.6999	0.00253
x1 = 0.75	0.00228
x1 = 0.8	0.00196
x1 = 0.8503	0.00159
x1 = 0.9	0.00111
x1 = 0.95	0.000612

C=CCCCC [hex-1-ene]
Details	mass density [kg/m3]
[1]	668.762

C1CCOC1 [tetrahydrofuran]
Details	mass density [kg/m3]
[1]	882.078
